Measured values reported in patent US20140065706A1, “MATERIALS AND METHODS FOR MOBILIZING CELLS INCLUDING CD34+, HEMATOPOIETIC COLONY FORMING, AND ENDOTHELIAL COLONY FORMING CELLS” (Indiana University Research and Technology Corp., priority 2010, published 2014).

What was measured:
[1] = test system: progenitors from the bone marrow; assay: Mobilization of progenitors from the bone marrow (NSAID comparison); conditions: in vivo
[2] = test system: circulating endothelial colony forming cells (ECFC); assay: Circulating endothelial colony forming cells (ECFC) in human volunteers before and after meloxicam; assay type: in vivo; conditions: post 5 day regimen; before treatment only 4/7 had detectable ECFC
Procedure: For analysis of circulating ECFC, PB mononuclear cells were plated in media at 37° C., 5% CO2, 5% O2 in 6 well culture plates coated with type 1 collagen. Media was be replaced every other day for 7-14 days at which time the adherent colonies of endothelial cells (EC) are removed with Trypsin and replated in collagen coated culture wells at a single cell per well. After 14 days each well is visually examined to determine whether there are 2 or more cells per well and if so, the total number of EC counted.

Question: How did the “ability to mobilize progenitors from the bone marrow” value [1] turn out when `Cc1onc(-c2ccccc2)c1-c1ccc(S(N)(=O)=O)cc1` [valdecoxib] was run?
Answer: unable to mobilize

Question: `Cc1cnc(NC(=O)C2=C(O)c3ccccc3S(=O)(=O)N2C)s1` [Meloxicam, meloxicam] was tested. Which “volunteers with detectable ECFC in 40 mL of blood post treatment” value [2] did it give?
Answer: 7/7

Question: `CC(=O)Oc1ccccc1C(=O)O` [aspirin] was tested. Which “ability to mobilize progenitors from the bone marrow” value [1] did it give?
Answer: highly effective
